Measurements: ChEMBL document CHEMBL2021775, “Discovery of flavonoid derivatives as anti-HCV agents via pharmacophore search combining molecular docking strategy” (Eur J Med Chem, 2012)
The source made the active and inactive calls. The calls are words filed in the database; no cut-off is given here.

How the values were obtained:
[1] = system: Hepatitis C virus; test: Antiviral activity against HCV JFH-1 J399EM infected in Human Huh7.5.1 cells assessed as suppression of viral replication at 50 uM after 72 hrs by EGFP assay; assay type: functional, Hepacivirus hominis; conditions: for inhibition at 50 µM: Huh-7, 72 h; for inhibition: Hepacivirus hominis, Huh-7
[2] = system: Hepatitis C virus; test: Inhibition of HCV 1b NS5B polymerase at 100 uM; set-up: species or system Hepatitis C virus subtype 1b
[3] = Cytotoxicity against human Huh7.5.1 cells by MTT assay; assay type: cell-based, Huh-7
[4] = system: Hepatitis C virus; test: Antiviral activity against HCV JFH-1 J399EM infected in Human Huh7.5.1 cells assessed as suppression of viral replication after 72 hrs by EGFP assay; assay type: functional, organism-based, Hepacivirus hominis; conditions: Huh-7, 72 h
[5] = system: Hepatitis C virus; test: Antiviral activity against HCV genotype 2a […] in Human Huh7.5.1 replicon cells assessed as suppression of viral replication after 72 hrs by luciferase reporter gene assay; assay type: functional, organism-based, Hepacivirus hominis; conditions: Huh-7, 72 h
[6] = system: Hepatitis C virus; test: Inhibition of HCV 1b NS5B polymerase; set-up: species or system Hepatitis C virus subtype 1b

Row | EC50 [4] | Structure (SMILES) | inhibition at 50 µM [1] | CC50 [3] | also measured
1 |  | O=c1cc(-c2ccccc2)oc2cc(O)cc(O)c12 [CHRYSIN] | 51% | > 50 µM | inhibition at 100 µM [2]: 30%
2 |  | O=c1c(O)c(-c2ccc(O)c(O)c2)oc2cc(O)ccc12 [FISETIN] | 26.4% | > 50 µM | 
3 | 23.3 µM | O=c1cc(-c2ccc(O)c(O)c2)oc2c(O)c(O)ccc12 |  | > 50 µM | 
4 |  | O=c1c(O)c(-c2ccccc2)oc2cccc(O)c12 | 83.7% | > 50 µM | 
5 | 32.2 µM | O=c1cc(-c2cc(O)c(O)c(O)c2)oc2cc(O)cc(O)c12 [TRICETIN] |  | > 50 µM | 
6 |  | O=c1c(O[C@H]2O[C@@H](CO)[C@@H](O)[C@@H](O)[C@@H]2O)c(-c2ccc(O)c(O)c2)oc2cc(O)cc(O)c12 |  | > 50 µM | inhibition [1]: inactive
7 |  | O=c1c(O)c(-c2cc(O)c(O)cc2O)oc2ccc(O)cc12 | 31.1% | > 50 µM | 
8 |  | O=c1c(O)c(-c2ccc(O)cc2)oc2cc(O)cc(O)c12 [KAEMPFEROL] | 51.9% | > 50 µM | 
9 | 38.5 µM | O=c1cc(-c2cc(O)c(O)c(O)c2)oc2cc(O)ccc12 |  | > 50 µM | 
10 | 33.1 µM | COc1c(O)cc2oc(-c3ccc(O)c(O)c3)cc(=O)c2c1O [EUPAFOLIN] |  | > 50 µM | 
11 |  | O=c1cc(-c2ccc(O)c(O)c2)oc2cc(O)c([C@@H]3O[C@H](CO)[C@@H](O)[C@H](O)[C@H]3O)c(O)c12 [ISOORIENTIN] |  | > 50 µM | inhibition [1]: inactive
12 | 36.1 µM | O=C(/C=C/c1ccc(O)cc1)c1ccc(O)cc1O [ISOLIQUIRITIGENIN] |  | > 50 µM | 
13 |  | O=c1c(O)c(-c2cccc(O)c2O)oc2ccc(O)cc12 |  | > 50 µM | inhibition [1]: inactive
14 |  | COc1cc(-c2oc3cc(O)cc(O)c3c(=O)c2O)ccc1O [ISORHAMNETIN] | 47.3% | > 50 µM | 
15 |  | O=c1cc(-c2ccccc2O)oc2c(O)c(O)ccc12 | 51.9% | > 50 µM | 
16 |  | O=c1c(O)c(-c2ccc(O)cc2O)oc2cc(O)cc(O)c12 [MORIN] | 31.1% | > 50 µM | 
17 | 46.9 µM | O=c1c(O)c(-c2cc(O)c(O)c(O)c2)oc2cc(O)cc(O)c12 [MYRICETIN] |  | > 50 µM | 
18 |  | COc1ccc(-c2oc3cc(O)cc(O)c3c(=O)c2O)cc1 [KAEMPFERIDE] | 27.6% | > 50 µM | 
19 |  | O=c1cc(-c2ccc(O)c(-c3c(O)cc(O)c4c(=O)cc(-c5ccc(O)cc5)oc34)c2)oc2cc(O)cc(O)c12 [AMENTOFLAVONE] |  | > 50 µM | inhibition [1]: inactive
20 | 12.7 µM | O=c1c(O)c(-c2ccc(O)cc2)oc2cccc(O)c12 |  | > 50 µM | 
21 | 7.9 µM | O=c1cc(-c2ccc(O)cc2)oc2cc(O)cc(O)c12 [APIGENIN] |  | > 50 µM | EC50 [5]: 12 µM
22 |  | O=c1cc(-c2ccc(O)c(O)c2)oc2cc(O[C@@H]3O[C@H](CO)[C@@H](O)[C@H](O)[C@H]3O)cc(O)c12 [GALUTEOLIN] |  | > 50 µM | inhibition [1]: inactive
23 | 33.9 µM | O=c1cc(-c2ccccc2)oc2cc(O)c(O)c(O)c12 [BAICALEIN] |  | > 50 µM | 
24 |  | O=c1c(O)c(-c2ccccc2)oc2cc(O)cc(O)c12 [GALANGIN] | 46.9% | > 50 µM | 
25 | 14.4 µM | O=c1c(-c2ccc(O)cc2)coc2cc(O)cc(O)c12 [GENISTEIN] |  | > 50 µM | 

Row | Structure (SMILES) | EC50 [4] | inhibition at 50 µM [1] | CC50 [3] | also measured
26 | O=c1c(O)c(-c2ccc(O)c(O)c2)oc2c(O)c(O)cc(O)c12 [GOSSYPETIN] | 47 µM |  | > 50 µM | 
27 | O=c1cc(-c2ccc(O)c(O)c2)oc2cc(O)cc(O)c12 [LUTEOLIN] | 4.7 µM |  | > 50 µM | EC50 [5]: 6.6 µM; IC50 [6]: 1.12 µM
28 | COc1cc(-c2oc3cc(O)cc(O)c3c(=O)c2O)cc(OC)c1O [SYRINGETIN] | 15.5 µM |  | > 50 µM | 
29 | O=C1c2cccc(O)c2C(=O)c2c(O)cc(CO)cc21 [ALOE-EMODIN] | 20.8 µM |  | > 50 µM | 
30 | COc1c(O)cc2oc(-c3ccc(O)cc3)cc(=O)c2c1O [HISPIDULIN] | 36.3 µM |  | > 50 µM | 
31 | O=c1c(O)c(-c2ccc(O)c(O)c2)oc2cc(O)cc(O)c12 [QUERCETIN] | 19.8 µM |  | > 50 µM | 
